Values quoted from earlier work in US20220387349A1, “TREATMENT OF CUTANEOUS ADVERSE EFFECTS CAUSED BY ONCOLOGICAL THERAPY WITH TOPICAL TAPINAROF COMPOSITIONS” (Sol-Gel Technologies Ltd, priority 2019, published 2022).
Like-named read-outs stand apart in the source and are kept apart here.

Legend:
[1] = psoriasis treatment, as a single drug; placebo 20.2%
[2] = system: interleukin-6 and interleukin-17A; conditions: mouse models
[3] = system: interleukin-6 and interleukin-17A; conditions: in vitro human skin studies
[4] = 1% tapinarof arm compared with the 0.5% arm or vehicle

SMILES | efficacy [4] | onset of action [4] | most frequent adverse events (topical tapinarof) | side-effects at higher concentrations (topical, higher than 1% w/w tapinarof) | adverse effects [1] [%] | effect on skin barrier function [2] | effect on specific proinflammatory mediators, including interleukin-6 and interleukin-17A [2] | effect on skin barrier function [3] | effect on specific proinflammatory mediators, including interleukin-6 and interleukin-17A [3]
CC(C)c1c(O)cc(/C=C/c2ccccc2)cc1O [Tapinarof, 3,5-dihydroxy-4-isopropyl-trans-stilbene] | higher efficacy | quicker onset of action | folliculitis and contact dermatitis | undesirable side-effects | 44.5 | enhance skin barrier function | inhibit specific proinflammatory mediators | enhance skin barrier function | inhibit specific proinflammatory mediators
C=C1/C(=C\C=C2/CCC[C@]3(C)[C@@H]([C@H](C)/C=C/[C@@H](O)C4CC4)CC[C@@H]23)C[C@@H](O)C[C@@H]1O [calcipotriene] | – | – | – | – | 19.5 | – | – | – | –
